Measurements from patent publication US20060003023A1, “Microbicidal composition” (priority 2004, published 2006).
Where “and” joins values, the source holds several entries; their conditions need not be identical. Equal values may be shown once.

Tests used:
[1] = system: Pseudomonas aeruginosa (ATCC 15442); test: High resolution MBC combination test (minimum biocidal concentration), recovery in Trypticase Soy Broth plus thioglycolate
[2] = system: Pseudomonas aeruginosa (ATCC 15442); test: High resolution MIC combination test (minimum inhibitory concentration), 96-well microtiter plate, mineral salts medium with 2% glucose
Description: When the sum of Qa/QA and Qb/QB is greater than one, antagonism is indicated. […] The lower the SI, the greater the synergy shown by that particular mixture. The minimum inhibitory concentration (MIC) of a microbicide is the lowest concentration tested under a specific set of conditions that prevents the growth of added microorganisms.
The tests were set up with 96-well microtiter plate using the Biomek™ 2000 Workstation employing a high resolution MIC/MBC combination test method, which provides multiple combinations of two biocides in one test plate. […] Samples (10 μl) taken from each well of the MIC plate were transferred to fresh media in the MBC plates and observed for the presence of surviving (viable) microorganisms over time. […] The synergistic ratio range of the biocide combination is a reflection of the total activity of both inhibition (MIC) and killing MBC).
Each well received 20 μl of a 24-hour pure culture suspension of Pseudomonas aeruginosa (ATCC 15442) at a final density of 106 colony forming units (CFU) per ml. Cell density was adjusted to an optical density of 0.09 at 660 nm using a spectrophotometer.
Tests were set up in duplicate with different starting concentrations of biocides to increase the number of possible combinations displaying antimicrobial activity.
All biocide results are reported on an active ingredient basis in ppm (parts per million).

With `CC1(C)C(=O)N(Br)C(=O)N1Cl` [BCDMH, 3-Bromo-1-chloro-5,5-dimethylhydantoin] the A alone ([1]; MBC of BCDMH alone, Day 1, Expt MBC 1) was 6.25 ppm total oxidant, the A alone ([1]; MBC of BCDMH alone, Day 1, Expt MBC 2) was 6.25 ppm total oxidant and the A alone ([1]; MBC of BCDMH alone, Day 3, Expt MBC 2) was 6.25 ppm total oxidant. For the same molecule, the A alone ([2]; MIC of BCDMH alone, Day 1, Expt MIC 1) was 3.13 ppm total oxidant, the A alone ([2]; MIC of BCDMH alone, Day 1, Expt MIC 2) was 3.13 ppm total oxidant and the A alone ([2]; MIC of BCDMH alone, Day 3, Expt MIC 1) was 6.25 ppm total oxidant. It also gave an A alone ([2]; MIC of BCDMH alone, Day 3, Expt MIC 2) of 6.25 ppm total oxidant, an A alone ([2]; MIC of BCDMH alone, Day 5, Expt MIC 1) of 6.25 ppm total oxidant and an A alone ([2]; MIC of BCDMH alone, Day 5, Expt MIC 2) of 6.25 ppm total oxidant.
With `O=c1[nH]sc2ccccc12` [BIT, 1,2-Benzisothiazolin-3-one] the A alone ([1]; BIT alone, ppm active ingredient, day 1, MBC 2) was 100.00 ppm, the a/A ([1]; BIT comb./alone, day 1, MBC 2) was 0.50 and the a comb. ([1]; BIT combined with stabilized hypochlorite and bromide, ppm active ingredient, day 1, MBC 2) was 50.00 ppm. It also gave an A alone [2] of 25.00 ppm, an A alone ([2]; BIT alone, ppm active ingredient, day 1, MIC 2) of 50.00 ppm and an A alone ([2]; BIT alone, ppm active ingredient, day 3, MIC 2) of 100.00 ppm. The a/A ([2]; BIT comb./alone, day 1, MIC 1) was 0.01, the a/A ([2]; BIT comb./alone, day 1, MIC 2) was 0.50 and 0.25 and the a/A ([2]; BIT comb./alone, day 3, MIC 2) was 0.50. For the same molecule, the a comb. ([2]; BIT combined with stabilized hypochlorite and bromide, ppm active ingredient, day 1, MIC 2) was 25.00 ppm and 12.50 ppm and the a comb. ([2]; BIT combined with stabilized hypochlorite and bromide, ppm active ingredient, day 3, MIC 2) was 50.00 ppm.
With `N#CC(Br)(Br)C(N)=O` [DBNPA, 2,2-Dibromo-nitrilo-propionamide] the A alone ([1]; DBNPA alone, ppm active ingredient, day 1, MBC 1) was 12.50 ppm, the a/A ([1]; DBNPA comb./alone, day 1, MBC 1) was 0.50 and the a comb. ([1]; DBNPA combined with stabilized hypochlorite and bromide, ppm active ingredient, day 1, MBC 1) was 6.25 ppm. The A alone ([2]; DBNPA alone, ppm active ingredient, day 1, MIC 1) was 6.25 ppm, the A alone ([2]; DBNPA alone, ppm active ingredient, day 1, MIC 2) was 6.25 ppm and the A alone ([2]; DBNPA alone, ppm active ingredient, day 5, MIC 1) was 12.50 ppm and 6.25 ppm. The A alone ([2]; DBNPA alone, ppm active ingredient, day 5, MIC 2) was 12.50 ppm, the a/A ([2]; DBNPA comb./alone, day 5, MIC 1) was 0.32 and 0.50 and the a/A ([2]; DBNPA comb./alone, day 5, MIC 2) was 0.32. For the same molecule, the a comb. ([2]; DBNPA combined with stabilized hypochlorite and bromide, ppm active ingredient, day 1, MIC 1) was 1.56 ppm and 0.78 ppm, the a comb. ([2]; DBNPA combined with stabilized hypochlorite and bromide, ppm active ingredient, day 5, MIC 1) was 4.00 ppm and 3.13 ppm and the a comb. ([2]; DBNPA combined with stabilized hypochlorite and bromide, ppm active ingredient, day 5, MIC 2) was 4.00 ppm.
`CCCCCCCCn1sc(Cl)c(Cl)c1=O` [DCOIT, 4,5-Dichloro-2-n-octyl-4-isothiazolin-3-one] was tested, and the “A alone (MBC)” value ([1]; Day 1, MBC 1) was 10.00 ppm active ingredient, the “A alone (MBC)” value ([1]; Day 1, MBC 2) was 10.00 ppm active ingredient and the “A alone (MIC)” value ([2]; Day 1, MIC 1) was 2.50 ppm active ingredient. The “A alone (MIC)” value ([2]; Day 1, MIC 2) was 2.50 ppm active ingredient, the “A alone (MIC)” value ([2]; Day 3, MIC 1) was 5.00 ppm active ingredient and 10.00 ppm active ingredient and the “A alone (MIC)” value ([2]; Day 3, MIC 2) was 10.00 ppm active ingredient and 5.00 ppm active ingredient. The “A alone (MIC)” value ([2]; Day 5, MIC 1) was 5.00 ppm active ingredient and the “A alone (MIC)” value ([2]; Day 5, MIC 2) was 10.00 ppm active ingredient.
Molecule `O=CCCCC=O` [GLUT, Pentane-1,5-dial] has an A alone ([1]; glutaraldehyde alone, ppm active ingredient, day 1, MBC 1) of 25.00 ppm, an A alone ([1]; glutaraldehyde alone, ppm active ingredient, day 1, MBC 2) of 25.00 ppm and an A alone ([1]; glutaraldehyde alone, ppm active ingredient, day 3, MBC 2) of 50.00 ppm. It also gave an a/A ([1]; glutaraldehyde comb./alone, day 1, MBC 1) of 0.50, an a/A ([1]; glutaraldehyde comb./alone, day 1, MBC 2) of 0.50 and an a/A ([1]; glutaraldehyde comb./alone, day 3, MBC 2) of 0.50. For the same molecule, the a comb. ([1]; glutaraldehyde combined with stabilized hypochlorite and bromide, ppm active ingredient, day 1, MBC 1) was 12.50 ppm, the a comb. ([1]; glutaraldehyde combined with stabilized hypochlorite and bromide, ppm active ingredient, day 1, MBC 2) was 12.50 ppm and the a comb. ([1]; glutaraldehyde combined with stabilized hypochlorite and bromide, ppm active ingredient, day 3, MBC 2) was 25.00 ppm. It also gave an A alone ([2]; glutaraldehyde alone, ppm active ingredient, day 1, MIC 1) of 25.00 ppm, an A alone ([2]; glutaraldehyde alone, ppm active ingredient, day 1, MIC 2) of 25.00 ppm and an A alone ([2]; glutaraldehyde alone, ppm active ingredient, day 3, MIC 1) of 25.00 ppm. It also gave an A alone ([2]; glutaraldehyde alone, ppm active ingredient, day 3, MIC 2) of 50.00 ppm, an A alone ([2]; glutaraldehyde alone, ppm active ingredient, day 5, MIC 1) of 25.00 ppm and an A alone ([2]; glutaraldehyde alone, ppm active ingredient, day 5, MIC 2) of 50.00 ppm. For the same molecule, the a/A ([2]; glutaraldehyde comb./alone, day 1, MIC 1) was 0.50, the a/A ([2]; glutaraldehyde comb./alone, day 1, MIC 2) was 0.50 and the a/A ([2]; glutaraldehyde comb./alone, day 3, MIC 1) was 0.50. It also gave an a/A ([2]; glutaraldehyde comb./alone, day 3, MIC 2) of 0.50, an a/A ([2]; glutaraldehyde comb./alone, day 5, MIC 1) of 0.50 and an a/A ([2]; glutaraldehyde comb./alone, day 5, MIC 2) of 0.50. For the same molecule, the a comb. ([2]; glutaraldehyde combined with stabilized hypochlorite and bromide, ppm active ingredient, day 1, MIC 1) was 12.50 ppm, the a comb. ([2]; glutaraldehyde combined with stabilized hypochlorite and bromide, ppm active ingredient, day 1, MIC 2) was 12.50 ppm and the a comb. ([2]; glutaraldehyde combined with stabilized hypochlorite and bromide, ppm active ingredient, day 3, MIC 1) was 12.50 ppm. The a comb. ([2]; glutaraldehyde combined with stabilized hypochlorite and bromide, ppm active ingredient, day 3, MIC 2) was 25.00 ppm, the a comb. ([2]; glutaraldehyde combined with stabilized hypochlorite and bromide, ppm active ingredient, day 5, MIC 1) was 12.50 ppm and the a comb. ([2]; glutaraldehyde combined with stabilized hypochlorite and bromide, ppm active ingredient, day 5, MIC 2) was 25.00 ppm.
In the case of “Alkyl*dimethyl benzyl ammonium chloride [ADBAC]”, the “A alone (MBC)” value ([1]; Day 3, MBC 1) is reported as 50.00 ppm active ingredient, the “A alone (MBC)” value ([1]; Day 3, MBC 2) is reported as 50.00 ppm active ingredient and the “A alone (MIC)” value ([2]; Day 1, MIC 1) is reported as 12.50 ppm active ingredient. The “A alone (MIC)” value ([2]; Day 3, MIC 2) was 50.00 ppm active ingredient.
